US6841661B2, “Glycopeptide antibacterial compounds, compositions containing same and methods of using same” (Princeton Univerisity, priority 1999, dated 2005)

Experiments:
[1] = system: E. faecium CL 5242 (VanA); test: microbe, parasite or virus in culture; assay type: cell-based; set-up: CL5242 (in vitro testing): unit not given here; conditions: Tables 7 and 8; unit not given
Source text: (§1) National Committee for Clinical Laboratory Standards (NCCLS) guidelines [Methods for Dilution Antimicrobial Susceptibility Tests for Bacteria that Grow Aerobically-Fourth Edition; Approved Standard (NCCLS Document M7-A4, January 1997)] are used to establish the assay, although variations are made to optimize the published method according to the specific needs of the present investigation.
(§2) The test panel currently includes eight enterococci and 13 staphylococci, which are selected based upon their antibiotic susceptibility profiles. The methicillin-sensitive Staphylococcus aureus (MSSA) strain MB2985 (Smith isolate) is used to assesses the potential for serum protein binding of the compounds. The paired Gram-negative strains ASP #49 (envA-) and ASP #50 (envA+) (M. Salvatore/N. Lee) are included to judge membrane effects. Table 3 presents a detailed description of the strains included in the panel, including some of the sources of the strains of bacteria.
(§3) The glycopeptide antibiotic teicoplanin is included whenever possible.
(§4) TSB, containing 10% HS* for vancomycin intermediate S. aurcus/methicillin-resistant S. aureus (VISA/MRSA) strains, is inoculated from an appropriate source (frozen broth or agar slant) and grown approximately 17 hr at 35° C. with shaking at 220 rpm. Cultures are grown in tubes with a volume of 5 ml for enterococci and 2 ml for all other strains.
(§5) Four milliliter (4 ml) overnight culture is added to 36 ml physiological saline to obtain tenfold dilutions (enterococci). Overnight culture (0.4 ml) is added to 39.6 ml saline to obtain 100-fold dilutions (all strains except enterococci). Diluted cultures are maintained on ice until time of inoculation of test plates.
(§6) The number of CFU/mL is determined on BHI agar plates, although this is not done routinely because titers of overnight cultures are relatively constant. The test media include: • BHI for enterococci and VISA/MRSA; • MH II (i.e., cation-adjusted Mueller-Hinton broth) for MRS, MSS and E. coli.; • MH II+HSA for MSSA is prepared as follows: • a. 2×MHII+86mg/ml HSA • b. Dissolve 4.3 g HSA in 50 ml autoclaved 2x MH II. • c. pH to 7.0 by adding 2M MOPS, sodium. • d. Filter sterilize using 0.22 μm Coming cellulose acetate filter, used because of reported low protein binding. • e. 1×MH II+43 mg/ml HSA • f. Dilute the 2×medium twofold and filter as above. 5.8.6. Preparation of Test Plates
(§7) Using a Denley liquid handling system (or similar automatic device), 100 μ1×medium is added to each well in columns 2-12 of a 96-well microtiter dish. Using a multichannel pipettor, 100 μl 2×medium is added to each well in column 1. Plates may be filled on the day prior to assay, wrapped in plastic bags and refrigerated.
(§8) Vancomycin, Schering 29482, and teicoplanin are prepared on a weight per volume basis using 10 mM 3-(N-morpholino)propane-sulfonic acid (MOPS) buffer pH 7. Test compounds are received in solution in appropriate solvent (typically as 1 mg/ml in DMSO) or are dissolved in appropriate solvent prior to further dilution in 10 mM MOPS buffer, ph7. Consistent with NCCLS guidelines, antibiotics are handled aseptically but are not otherwise sterilized.
(§9) 100 μl appropriately diluted antibiotic solution is added to the first well of the designated row of the 96-well microtiter dish and serially diluted by twofold across the row using the Denley liquid handling system. With the aid of a Dynatech NEC 2000 inoculator, each well of the microtiter dish is inoculated with 1.5 μl diluted overnight culture, yielding approximately 1-5×10^6 CFU/ml for enterococci and approximately 3-7×10^5 CFU/ml for all other strains. Dishes are placed in stacks of no more than five, wrapped in plastic bags and incubated at 35° C. • Indication of result(s) type (% INH, IC50, Zone size, etc.) • MIC=minimum inhibitory concentration ps 5.8.9. Interpretation of the Results on the Basis of Activity […]

[2] = system: E. faecium CL 5053 (VanA); test: microbe, parasite or virus in culture; assay type: cell-based; set-up: CL5053 (in vitro testing): unit not given here; conditions: Tables 7 and 8; unit not given
Source text: as §1, §2, §3, §4, §5, §6, §7, §8, §9

[3] = system: E. faecium CL 4931 (VanA); test: microbe, parasite or virus in culture; assay type: cell-based; set-up: CL4931 (in vitro testing): unit not given here; conditions: Tables 7 and 8; unit not given
Source text: as §1, §2, §3, §4, §5, §6, §7, §8, §9

[4] = system: CL 4931, CL 5053, CL 5242 and CL 4877; assay type: cell-based, E. faecium, E. faecalis; set-up: unit not given here; conditions: mean of CL4931, CL5053, CL5242, CL4877; unit not given
Source text: as §1, §2, §3, §4, §5, §6, §7, §8, §9

[5] = system: E. faecalis CL 4877 (VanB); test: microbe, parasite or virus in culture; assay type: cell-based; set-up: CL4877 (in vitro testing): unit not given here; conditions: Tables 7 and 8; unit not given
Source text: as §1, §2, §3, §4, §5, §6, §7, §8, §9

Structure (SMILES) | CL5242 (in vitro testing) [1] | CL5053 (in vitro testing) [2] | CL4931 (in vitro testing) [3] | Mean [4] | CL4877 (in vitro testing) [5]
CNC(CC(C)C)C(=O)NC1C(=O)NC(CC(N)=O)C(=O)NC2C(=O)NC3C(=O)NC(C(=O)NC(C(=O)O)c4cc(O)cc(O)c4-c4cc3ccc4O)C(O)c3ccc(c(Cl)c3)Oc3cc2cc(c3OC2OC(CNCCO)C(O)C(O)C2OC2CC(C)(NCc3ccc(OCc4ccc(Cl)c(Cl)c4)cc3)C(O)C(C)O2)Oc2ccc(cc2Cl)C1O (centres unmarked) [Compound 146] | 1 | 8 | 8 | 4.4 | 0.5
CNCC1OC(Oc2c3cc4cc2Oc2ccc(cc2Cl)C(O)C2NC(=O)C(NC(=O)C4NC(=O)C(CC(N)=O)NC(=O)C(NC(=O)C(CC(C)C)NC)C(O)c4ccc(c(Cl)c4)O3)c3ccc(O)c(c3)-c3c(O)cc(O)cc3C(C(=O)O)NC2=O)C(OC2CC(C)(NCc3ccc(OCc4ccc(Cl)c(Cl)c4)cc3)C(O)C(C)O2)C(O)C1O (centres unmarked) [Compound 147] | 2 | 8 | 4 | 4.5 | 4
CCCNCC1OC(Oc2c3cc4cc2Oc2ccc(cc2Cl)C(O)C2NC(=O)C(NC(=O)C4NC(=O)C(CC(N)=O)NC(=O)C(NC(=O)C(CC(C)C)NC)C(O)c4ccc(c(Cl)c4)O3)c3ccc(O)c(c3)-c3c(O)cc(O)cc3C(C(=O)O)NC2=O)C(OC2CC(C)(NCc3ccc(OCc4ccc(Cl)c(Cl)c4)cc3)C(O)C(C)O2)C(O)C1O (centres unmarked) [Compound 148] | 1 | 8 | 8 | 4.5 | 1
CNC(CC(C)C)C(=O)NC1C(=O)NC(CC(N)=O)C(=O)NC2C(=O)NC3C(=O)NC(C(=O)NC(C(=O)O)c4cc(O)cc(O)c4-c4cc3ccc4O)C(O)c3ccc(c(Cl)c3)Oc3cc2cc(c3OC2OC(CNCc3ccc(Cl)cc3)C(O)C(O)C2OC2CC(C)(NCc3ccc(OCc4ccc(Cl)c(Cl)c4)cc3)C(O)C(C)O2)Oc2ccc(cc2Cl)C1O (centres unmarked) [Compound 149] | 2 | 8 | 8 | 4.6 | 0.25
C=CCNCC1OC(Oc2c3cc4cc2Oc2ccc(cc2Cl)C(O)C2NC(=O)C(NC(=O)C4NC(=O)C(CC(N)=O)NC(=O)C(NC(=O)C(CC(C)C)NC)C(O)c4ccc(c(Cl)c4)O3)c3ccc(O)c(c3)-c3c(O)cc(O)cc3C(C(=O)O)NC2=O)C(OC2CC(C)(NCc3ccc(OCc4ccc(Cl)c(Cl)c4)cc3)C(O)C(C)O2)C(O)C1O (centres unmarked) [Compound 150] | 2 | 8 | 8 | 5.5 | 4
CNC(CC(C)C)C(=O)NC1C(=O)NC(CC(N)=O)C(=O)NC2C(=O)NC3C(=O)NC(C(=O)NC(C(=O)O)c4cc(O)cc(O)c4-c4cc3ccc4O)C(O)c3ccc(c(Cl)c3)Oc3cc2cc(c3OC2OC(CNC(=O)Cc3ccccc3)C(O)C(O)C2OC2CC(C)(NCc3ccc(OCc4ccc(Cl)c(Cl)c4)cc3)C(O)C(C)O2)Oc2ccc(cc2Cl)C1O (centres unmarked) [Compound 151] | 2 | 16 | 8 | 6.6 | 0.5
CNC(CC(C)C)C(=O)NC1C(=O)NC(CC(N)=O)C(=O)NC2C(=O)NC3C(=O)NC(C(=O)NC(C(=O)O)c4cc(O)cc(O)c4-c4cc3ccc4O)C(O)c3ccc(c(Cl)c3)Oc3cc2cc(c3OC2OC(CNCc3ccccc3Cl)C(O)C(O)C2OC2CC(C)(NCc3ccc(OCc4ccc(Cl)c(Cl)c4)cc3)C(O)C(C)O2)Oc2ccc(cc2Cl)C1O (centres unmarked) [Compound 153] | 4 | 16 | 8 | 7.0 | 0.12
CNC(CC(C)C)C(=O)NC1C(=O)NC(CC(N)=O)C(=O)NC2C(=O)NC3C(=O)NC(C(=O)NC(C(=O)O)c4cc(O)cc(O)c4-c4cc3ccc4O)C(O)c3ccc(c(Cl)c3)Oc3cc2cc(c3OC2OC(CNCC3CCNCC3)C(O)C(O)C2OC2CC(C)(NCc3ccc(OCc4ccc(Cl)c(Cl)c4)cc3)C(O)C(C)O2)Oc2ccc(cc2Cl)C1O (centres unmarked) [Compound 155] | 4 | 16 | 16 | 9.3 | 1
CNC(CC(C)C)C(=O)NC1C(=O)NC(CC(N)=O)C(=O)NC2C(=O)NC3C(=O)NC(C(=O)NC(C(=O)O)c4cc(O)cc(O)c4-c4cc3ccc4O)C(O)c3ccc(c(Cl)c3)Oc3cc2cc(c3OC2OC(CNCC3CCCCO3)C(O)C(O)C2OC2CC(C)(NCc3ccc(OCc4ccc(Cl)c(Cl)c4)cc3)C(O)C(C)O2)Oc2ccc(cc2Cl)C1O (centres unmarked) [Compound 156] | 2 | 16 | 16 | 9.5 | 4
CNC(CC(C)C)C(=O)NC1C(=O)NC(CC(N)=O)C(=O)NC2C(=O)NC3C(=O)NC(C(=O)NC(C(=O)O)c4cc(O)cc(O)c4-c4cc3ccc4O)C(O)c3ccc(c(Cl)c3)Oc3cc2cc(c3OC2OC(CNCCC#N)C(O)C(O)C2OC2CC(C)(NCc3ccc(OCc4ccc(Cl)c(Cl)c4)cc3)C(O)C(C)O2)Oc2ccc(cc2Cl)C1O (centres unmarked) [Compound 157] | 4 | 16 | 16 | 10.0 | 4
CNC(CC(C)C)C(=O)NC1C(=O)NC(CC(N)=O)C(=O)NC2C(=O)NC3C(=O)NC(C(=O)NC(C(=O)O)c4cc(O)cc(O)c4-c4cc3ccc4O)C(O)c3ccc(c(Cl)c3)Oc3cc2cc(c3OC2OC(CNCc3ccc(Cl)c(Cl)c3)C(O)C(O)C2OC2CC(C)(NCc3ccc(OCc4ccc(Cl)c(Cl)c4)cc3)C(O)C(C)O2)Oc2ccc(cc2Cl)C1O (centres unmarked) [Compound 158] | 4 | 16 | 16 | 10.0 | 4
CNC(CC(C)C)C(=O)NC1C(=O)NC(CC(N)=O)C(=O)NC2C(=O)NC3C(=O)NC(C(=O)NC(C(=O)O)c4cc(O)cc(O)c4-c4cc3ccc4O)C(O)c3ccc(c(Cl)c3)Oc3cc2cc(c3OC2OC(CNCC(C)C)C(O)C(O)C2OC2CC(C)(NCc3ccc(OCc4ccc(Cl)c(Cl)c4)cc3)C(O)C(C)O2)Oc2ccc(cc2Cl)C1O (centres unmarked) [Compound 159] | 4 | 16 | 16 | 10.0 | 4
CNC(CC(C)C)C(=O)NC1C(=O)NC(CC(N)=O)C(=O)NC2C(=O)NC3C(=O)NC(C(=O)NC(C(=O)O)c4cc(O)cc(O)c4-c4cc3ccc4O)C(O)c3ccc(c(Cl)c3)Oc3cc2cc(c3OC2OC(CNCCCN3CCCC3)C(O)C(O)C2OC2CC(C)(NCc3ccc(OCc4ccc(Cl)c(Cl)c4)cc3)C(O)C(C)O2)Oc2ccc(cc2Cl)C1O (centres unmarked) [Compound 160] | 4 | 16 | 16 | 13.0 | 16
